Source: ChEMBL document CHEMBL1201862, “PubChem BioAssay data set” (2004)
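The compound was tested at five concentrations on cells cultured in 96-well plates, with a 48-hour exposure period. GI50 is the concentration that inhibits growth by half.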 Active and inactive are the calls of the source. Cut-off read from the data, not from the text of the source: active = GI50 up to about 1.1 µM and inactive = higher.

What was measured:
Test in all cases: DTP human tumour cell line panel, 48 h
786-0 = tested on: 786-0
A498 = tested on: A498
A549 = tested on: A549
ACHN = tested on: ACHN
CAKI-1 = tested on: CAKI-1
CCRF-CEM = tested on: CCRF-CEM
COLO 205 = tested on: COLO 205
DLD-1 = tested on: DLD-1
DMS-114 = tested on: DMS-114
EKVX = tested on: EKVX
HCC 2998 = tested on: HCC 2998
HCT-116 = tested on: HCT-116
HL-60 = tested on: HL-60
HOP-18 = tested on: HOP-18
HOP-62 = tested on: HOP-62
HOP-92 = tested on: HOP-92
IGROV-1 = tested on: IGROV-1
K562 = tested on: K562
KM-20L2 = tested on: KM-20L2
KM12 = tested on: KM12
LOX IMVI = tested on: LOX IMVI
LXFL 529 = tested on: LXFL 529
M14 = tested on: M14
M19-MEL = tested on: M19-MEL
MOLT-4 = tested on: MOLT-4
Malme-3M = tested on: Malme-3M
NCI-H226 = tested on: NCI-H226
NCI-H23 = tested on: NCI-H23
NCI-H460 = tested on: NCI-H460
NCI-H522 = tested on: NCI-H522
OVCAR-3 = tested on: OVCAR-3
OVCAR-4 = tested on: OVCAR-4
OVCAR-5 = tested on: OVCAR-5
OVCAR-8 = tested on: OVCAR-8
RPMI-8226 = tested on: RPMI-8226
RXF 393 = tested on: RXF 393
RXF 631 = tested on: RXF 631
SF-268 = tested on: SF-268
SF-295 = tested on: SF-295
SF-539 = tested on: SF-539
SK-MEL-28 = tested on: SK-MEL-28
SK-MEL-2 = tested on: SK-MEL-2
SK-MEL-5 = tested on: SK-MEL-5
SK-OV-3 = tested on: SK-OV-3
SN12C = tested on: SN12C
SNB-19 = tested on: SNB-19
SNB-75 = tested on: SNB-75
SNB-78 = tested on: SNB-78
SW-620 = tested on: SW-620
TK-10 = tested on: TK-10
U-251 = tested on: U-251
UACC-257 = tested on: UACC-257
UACC-62 = tested on: UACC-62
UO-31 = tested on: UO-31
XF498 = tested on: XF498

Measured: GI50

Cc1ccc(S(=O)(=O)NC(=O)Nc2nc(Cl)cc(Cl)n2)cc1
inactive: 786-0 > 100 µM | A498 > 100 µM | A549 > 100 µM | ACHN > 100 µM | CAKI-1 > 100 µM | CCRF-CEM > 100 µM | COLO 205 > 100 µM | DLD-1 > 100 µM | DMS-114 96.4 µM | EKVX > 100 µM | HCC 2998 28.3 µM | HCT-116 > 100 µM | HL-60 > 100 µM | HOP-18 > 100 µM | HOP-62 > 100 µM | HOP-92 99.3 µM | IGROV-1 > 100 µM | K562 62.2 µM | KM-20L2 > 100 µM | KM12 > 100 µM | LOX IMVI > 100 µM | LXFL 529 > 100 µM | M14 > 100 µM | M19-MEL > 100 µM | MOLT-4 57.7 µM | Malme-3M > 100 µM | NCI-H226 > 100 µM | NCI-H23 > 100 µM | NCI-H460 > 100 µM | NCI-H522 5.89 µM | OVCAR-3 > 100 µM | OVCAR-4 > 100 µM | OVCAR-5 > 100 µM | OVCAR-8 > 100 µM | RPMI-8226 > 100 µM | RXF 393 > 100 µM | RXF 631 > 100 µM | SF-268 > 100 µM | SF-295 > 100 µM | SF-539 > 100 µM | SK-MEL-28 > 100 µM | SK-MEL-2 > 100 µM | SK-MEL-5 > 100 µM | SK-OV-3 > 100 µM | SN12C > 100 µM | SNB-19 > 100 µM | SNB-75 > 100 µM | SNB-78 > 100 µM | SW-620 > 100 µM | TK-10 > 100 µM | U-251 > 100 µM | UACC-257 19.2 µM | UACC-62 > 100 µM | UO-31 > 100 µM | XF498 > 100 µM
